Measurements as given in PMC8802617 (Bioorganic & medicinal chemistry, 2018).
Where two headings read alike, the source gives them in different places. *1 amine or outer side, *2 acyl side, *3 side chain or, on linkers, in order; H or OH if unused. Where a SMILES comes first, the peptide text is derived from it. Bridges are numbered along the chain shown (N, C = ends). Roman numbers before positions name the chains, in order. [ ]: non-standard residue; d: D form. Piperazine(1,4-diyl) = C1CN([*:2])CCN1[*:1]; dPen = CC(C)(S)[C@@H](N)C(=O)O

Columns and labels:
[1] = target: T1, MOR (Homo sapiens, UniProt P35372); type: binding; details: membranes from transient HEK cells
[2] = target: T2, KOR (Homo sapiens, UniProt P41145); assay: cell-based
[3] = target: T3, DOR (Homo sapiens, UniProt P41143); assay: Split luciferase cAMP assay, agonist mode, HEK cells stably expressing DOR; type: cell-based
[4] = target: T1, MOR; assay: Split luciferase cAMP assay, agonist mode, HEK cells stably expressing MOR; type: cell-based
[5] = target: T3, DOR; type: binding; details: membranes from transient HEK cells
[6] = target: T2, KOR; assay: biochemical; type: binding
[7] = target: T2, KOR; details: read-out: KOR Ki, cited from earlier work
[8] = target: T1, MOR; details: read-out: MOR Ki; literature value ref 16; cited from earlier work
[9] = target: T3, DOR; details: read-out: DOR Ki; literature value ref 16; cited from earlier work

T3 sequence (P41143 whole entry): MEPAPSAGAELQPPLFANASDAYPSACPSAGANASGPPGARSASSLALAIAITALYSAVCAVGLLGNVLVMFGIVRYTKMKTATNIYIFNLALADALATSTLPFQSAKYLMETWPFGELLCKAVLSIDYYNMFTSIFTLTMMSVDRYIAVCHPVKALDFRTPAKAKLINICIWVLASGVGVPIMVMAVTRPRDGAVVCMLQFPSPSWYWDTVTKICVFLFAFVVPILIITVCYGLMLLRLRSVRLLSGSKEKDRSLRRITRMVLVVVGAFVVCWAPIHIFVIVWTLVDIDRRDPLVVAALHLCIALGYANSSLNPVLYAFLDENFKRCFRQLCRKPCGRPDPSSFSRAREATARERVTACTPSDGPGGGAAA
T1 sequence (P35372 whole entry): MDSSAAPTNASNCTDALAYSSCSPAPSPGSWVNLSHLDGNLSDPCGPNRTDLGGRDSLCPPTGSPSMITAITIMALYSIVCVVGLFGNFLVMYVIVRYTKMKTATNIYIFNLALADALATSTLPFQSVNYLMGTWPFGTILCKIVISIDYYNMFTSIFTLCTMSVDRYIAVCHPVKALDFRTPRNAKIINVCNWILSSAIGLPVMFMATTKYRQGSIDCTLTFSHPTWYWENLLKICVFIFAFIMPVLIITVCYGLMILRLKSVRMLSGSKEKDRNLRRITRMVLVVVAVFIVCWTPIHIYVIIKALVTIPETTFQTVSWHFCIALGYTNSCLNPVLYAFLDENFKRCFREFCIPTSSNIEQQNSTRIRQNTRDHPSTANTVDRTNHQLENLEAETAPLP
T2 sequence (P41145 whole entry): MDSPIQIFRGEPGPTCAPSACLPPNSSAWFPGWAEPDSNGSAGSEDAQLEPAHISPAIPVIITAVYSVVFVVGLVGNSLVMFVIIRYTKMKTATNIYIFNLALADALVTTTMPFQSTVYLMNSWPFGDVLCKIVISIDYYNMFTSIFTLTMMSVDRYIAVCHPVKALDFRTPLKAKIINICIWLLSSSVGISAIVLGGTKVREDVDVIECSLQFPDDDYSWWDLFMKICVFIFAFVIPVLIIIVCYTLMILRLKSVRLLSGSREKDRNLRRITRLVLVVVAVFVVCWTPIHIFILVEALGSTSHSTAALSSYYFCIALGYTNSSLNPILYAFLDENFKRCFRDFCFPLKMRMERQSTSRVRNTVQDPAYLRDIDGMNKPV

CC1(C)SSC(C)(C)[C@@H](NC(=O)[C@@H](N)Cc2ccc(O)cc2)C(=O)NCC(=O)N[C@@H](Cc2ccccc2)C(=O)N2CCN(CC2)C(=O)[C@H](Cc2ccccc2)NC(=O)CNC(=O)[C@@H]1NC(=O)[C@@H](N)Cc1ccc(O)cc1 [ligand 3, c^2,2′(Tyr-DPen-Gly-Phe)2-piperazine] (I: H-Y[dPen]GF / II: H-Y[dPen]GF; disulfide I:2-II:2; linker I:C-II:C via Piperazine(1,4-diyl))
Ki ([1]; MOR [3H]DAMGO Ki): 0.0029 µM
Ki ([1]; MOR [3H]DAMGO pKi): 0.00288 µM
EC50 ([2]; KOR EC50): 0.269 µM
EC50 ([2]; KOR pEC50): 0.269 µM
EC50 ([3]; DOR EC50, agonist mode): 0.269 µM
EC50 ([3]; DOR pEC50, agonist mode): 0.269 µM
EC50 ([4]; MOR EC50, agonist mode): 0.191 µM
EC50 ([4]; MOR pEC50, agonist mode): 0.191 µM
Ki ([5]; DOR [3H]DADLE Ki): 0.0019 µM
Ki ([5]; DOR [3H]DADLE pKi): 0.002 µM
Ki ([6]; KOR [3H]U69593 Ki): 0.0056 µM
Ki ([6]; KOR [3H]U69593 pKi): 0.00562 µM

Biphalin
Ki ([7]; literature value ref 6): 0.27 ± 0.015 µM

c^2,2′(Tyr-DPen-Gly-Phe-NH-)2 (YCGF) [compound 6]
Ki [8]: 0.0052 ± 0.0005 µM
Ki ([7]; literature value ref 16): 0.257 ± 0.025 µM
Ki [9]: 0.0019 ± 0.0002 µM
